ChEMBL document CHEMBL5120971, “Network Pharmacology Research and Dual-omic Analyses Reveal the Molecular Mechanism of Natural Product Nodosin Inhibiting Muscle-Invasive Bladder Cancer in Vitro and in Vivo” (J Nat Prod, 2022)
The source made the active and inactive calls. The calls are words filed in the database; no cut-off is given here.

Columns and labels:
T-24 [1] = assay: Induction of autophagy in human T24 cells assessed as up regulation of MAP1LC3B gene expression at 6 uM measured after 12 to 18 hrs by transcriptome analysis; assay type: functional, cell-based; settings: time 12-18 hrs
T-24 [2] = assay: Effect on MSH2 expression in human T24 cells at 6 uM measured after 24 to 30 hrs by proteomic analysis; assay type: functional, cell-based; settings: time 24-30 hrs
T-24 [3] = assay: Inhibition of DNA replication in human T24 cells at 4 to 10 uM measured after 24 hrs by EdU staining based fluorescence assay; assay type: functional, cell-based; settings: dose 4-10 µM
T-24 [4] = assay: Up regulation of HMOX1 expression in human T24 cells at 6 uM measured after 24 to 30 hrs by proteomic analysis; assay type: functional, cell-based; settings: time 24-30 hrs
T-24 [5] = assay: Effect on CDKN3 expression in human T24 cells at 6 uM measured after 24 to 30 hrs by proteomic analysis; assay type: functional, cell-based; settings: time 24-30 hrs
T-24 [6] = assay: Effect on NEK6 expression in human T24 cells at 6 uM measured after 24 to 30 hrs by proteomic analysis; assay type: functional, cell-based; settings: time 24-30 hrs
UMUC3 [7] = assay: Cytotoxicity against human UMUC3 cells assessed as reduction in cell growth at 4 uM by CCK8 assay; assay type: functional, cell-based; settings: time 24-72 hrs, TDE = time-dependent effect
T-24 [8] = assay: Cytotoxicity against human T24 cells assessed as reduction in cell growth by CCK8 assay; assay type: functional, cell-based
SW780 = assay: Cytotoxicity against human SW780 cells assessed as reduction in cell growth by CCK8 assay; assay type: functional, cell-based
T-24 [9] = assay: Effect on RHOB expression in human T24 cells at 6 uM measured after 24 to 30 hrs by proteomic analysis; assay type: functional, cell-based; settings: time 24-30 hrs
T-24 [10] = assay: Induction of ROS generation in human T24 cells at 4 to 10 uM measured after 6 hrs by H2DCFDA probe based flow cytometry; assay type: functional, cell-based; settings: dose 4-10 µM
T-24 [11] = assay: Induction of apoptosis in human T24 cells assessed as effect on FAM168A expression at 6 uM measured after 24 to 30 hrs by proteomic analysis; assay type: functional, cell-based; settings: time 24-30 hrs
T-24 [12] = assay: Antimigratory activity against human T24 cells assessed as down regulation of LIMA1 expression at 6 uM measured after 24 to 30 hrs by proteomic analysis; assay type: functional, cell-based; settings: time 24-30 hrs
T-24 [13] = assay: Cell cycle arrest in human T24 cells assessed as increase in cell accumulation at S-phase at 2 to 8 uM measured after 24 hrs by propidium iodide staining based flow cytometry; assay type: functional; settings: dose 2-8 µM
T-24 [14] = assay: Induction of morphological changes in human T24 cells assessed as appearance of apoptotic bodies at 4 to 8 uM measured after 48 hrs by transmission electron microscopy; assay type: functional, cell-based; settings: dose 4-8 µM
T-24 [15] = assay: Antimigratory activity against human T24 cells assessed as down regulation of CFL2 expression at 6 uM measured after 24 to 30 hrs by proteomic analysis; assay type: functional, cell-based; settings: time 24-30 hrs
T-24 [16] = assay: Cytotoxicity against human T24 cells assessed as reduction in cell growth at 4 uM by CCK8 assay; assay type: functional, cell-based; settings: time 24-72 hrs, TDE = time-dependent effect
T-24 [17] = assay: Up regulation of AIFM2 expression in human T24 cells at 6 uM measured after 24 to 30 hrs by proteomic analysis; assay type: functional, cell-based; settings: time 24-30 hrs
T-24 [18] = assay: Induction of apoptosis in human T24 cells assessed as up regulation of MAP1LC3B expression at 6 to 12 uM measured after 24 to 30 hrs by Western blot analysis; assay type: functional, cell-based; settings: dose 6-12 µM, time 24-30 hrs
T-24 [19] = assay: Antimigratory activity against human T24 cells assessed as down regulation of PALLD expression at 6 uM measured after 24 to 30 hrs by proteomic analysis; assay type: functional, cell-based; settings: time 24-30 hrs
T-24 [20] = assay: Antitumor activity against human T24 cells xenografted in BALB/c mouse assessed as reduction in tumor weight at 2 mg/kg, ip administered at 2 days interval; assay type: functional, organism-based
T-24 [21] = assay: Effect on SUMO3 expression in human T24 cells at 6 uM measured after 24 to 30 hrs by proteomic analysis; assay type: functional, cell-based; settings: time 24-30 hrs
T-24 [22] = assay: Induction of apoptosis in human T24 cells assessed as effect on ARL6IP1 expression at 6 uM measured after 24 to 30 hrs by proteomic analysis; assay type: functional, cell-based; settings: time 24-30 hrs
T-24 [23] = assay: Effect on RNF169 expression in human T24 cells at 6 uM measured after 24 to 30 hrs by proteomic analysis; assay type: functional, cell-based; settings: time 24-30 hrs
UMUC3 [24] = assay: Cytotoxicity against human UMUC3 cells assessed as reduction in cell growth by CCK8 assay; assay type: functional, cell-based
T-24 [25] = assay: Antimigratory activity against human T24 cells assessed as reduction in F-actin expression at 8 to 20 uM measured after 24 hrs by actin-tracker red-594/DAPI staining based fluorescence assay; assay type: functional, cell-based; settings: dose 8-20 µM
T-24 [26] = assay: Induction of autophagy in human T24 cells assessed as effect on OPTN gene expression at 12 to 18 uM measured after 24 to 30 hrs by analysis; assay type: functional, cell-based; settings: dose 12-18 µM, time 24-30 hrs
T-24 [27] = assay: Effect on RPA2 expression in human T24 cells at 6 uM measured after 24 to 30 hrs by proteomic analysis; assay type: functional, cell-based; settings: time 24-30 hrs
T-24 [28] = assay: Induction of apoptosis in human T24 cells assessed as necrotic cells at 6 uM measured after 48 hrs by Annexin V-FITC/propidium iodide staining based flow cytometry (reference value: 0.57%); assay type: functional
T-24 [29] = assay: Induction of apoptosis in human T24 cells assessed as up regulation of HMOX1 expression at 6 to 12 uM measured after 24 to 30 hrs by Western blot analysis; assay type: functional, cell-based; settings: dose 6-12 µM, time 24-30 hrs
T-24 [30] = assay: Up regulation of AIFM2 gene expression in human T24 cells at 6 uM measured after 12 to 18 hrs by transcriptome analysis; assay type: functional, cell-based; settings: time 12-18 hrs
T-24 [31] = assay: Induction of apoptosis in human T24 cells assessed as early apoptotic cells at 8 uM measured after 48 hrs by Annexin V-FITC/propidium iodide staining based flow cytometry (reference value: 1.2%); assay type: functional
T-24 [32] = assay: Antitumor activity against human T24 cells xenografted in BALB/c mouse assessed as reduction in mitotic count at 2 mg/kg, ip administered at 2 days interval by H and E staining based assay; assay type: functional, organism-based
T-24 [33] = assay: Induction of apoptosis in human T24 cells assessed as effect on ZFP36L1 expression at 6 uM measured after 24 to 30 hrs by proteomic analysis; assay type: functional, cell-based; settings: time 24-30 hrs
T-24 [34] = assay: Induction of autophagy in human T24 cells assessed as effect on WDR41 gene expression at 6 uM measured after 12 to 18 hrs by transcriptome analysis; assay type: functional, cell-based; settings: time 12-18 hrs
T-24 [35] = assay: Induction of apoptosis in human T24 cells assessed as up regulation of LC3 expression at 6 to 12 uM measured after 24 hrs by immunofluorescence analysis; assay type: functional, cell-based; settings: dose 6-12 µM
T-24 [36] = assay: Induction of apoptosis in human T24 cells assessed as viable cells at 6 uM measured after 48 hrs by Annexin V-FITC/propidium iodide staining based flow cytometry (reference value: 97.49%); assay type: functional; settings: read-out: Activity
T-24 [37] = assay: Antimigratory activity against human T24 cells assessed as down regulation of ITGA3 expression at 6 uM measured after 24 to 30 hrs by proteomic analysis; assay type: functional, cell-based; settings: time 24-30 hrs
T-24 [38] = assay: Induction of apoptosis in human T24 cells assessed as up regulation of SQSTM1 expression at 6 to 12 uM measured after 24 hrs by immunofluorescence analysis; assay type: functional, cell-based; settings: dose 6-12 µM

C=C1C(=O)[C@]23C[C@H]1C[C@@H](O)[C@H]2[C@@]12CO[C@@H](O)[C@@H]1C(C)(C)CC[C@@H]2OC3=O [NODOSIN]
Activity (T-24 [1]): Active | Activity (T-24 [2]): Active | inhibition (T-24 [3]): Active | Activity (T-24 [4]): Active | Activity (T-24 [5]): Active | Activity (T-24 [6]): Active | Activity (UMUC3 [7]): Tde | IC50 (T-24 [8]): 4.91 µM | Activity (T-24 [8]; DDE = dose-dependent effect): Dde | IC50 (SW780): 9.99 µM | Activity (SW780; DDE = dose-dependent effect): Dde | Activity (T-24 [9]): Active | Activity (T-24 [10]): Active | Activity (T-24 [11]): Active | Activity (T-24 [12]): Active | Activity (T-24 [13]): Active | Activity (T-24 [14]): Active | Activity (T-24 [15]): Active | Activity (T-24 [16]): Tde | Activity (T-24 [17]): Active | Activity (T-24 [18]): Active | Activity (T-24 [19]): Active | Activity (T-24 [20]): Active | Activity (T-24 [21]): Active | Activity (T-24 [22]): Active | Activity (T-24 [23]): Active | IC50 (UMUC3 [24]): 3.45 µM | Activity (UMUC3 [24]; DDE = dose-dependent effect): Dde | Activity (T-24 [25]): Active | Activity (T-24 [26]): Active | Activity (T-24 [27]): Active | Activity (T-24 [28]): 0.4% | Activity (T-24 [29]): Active | Activity (T-24 [30]): Active | Activity (T-24 [31]): 10.54% | Activity (T-24 [32]): Active | Activity (T-24 [33]): Active | Activity (T-24 [34]): Active | Activity (T-24 [35]): Active | viability at 6 µM (T-24 [36]): 78.8% | Activity (T-24 [37]): Active | Activity (T-24 [38]): Active
